Assay results as given in ChEMBL document CHEMBL1127285, “N-alkyl quinuclidinium substance P antagonists” (Bioorg Med Chem Lett, 1994).
pIC50: −log10 of the molar value.

Molecular target: Substance-P receptor (Homo sapiens, UniProt P25103)
Test: Compound was tested in vitro for its Tachykinin receptor 1 affinity by the displacement of [125I]Bolton-Hunter substance p from human IM-9 cells
Type: cell-based

Sequence of Substance-P receptor (P25103 whole entry): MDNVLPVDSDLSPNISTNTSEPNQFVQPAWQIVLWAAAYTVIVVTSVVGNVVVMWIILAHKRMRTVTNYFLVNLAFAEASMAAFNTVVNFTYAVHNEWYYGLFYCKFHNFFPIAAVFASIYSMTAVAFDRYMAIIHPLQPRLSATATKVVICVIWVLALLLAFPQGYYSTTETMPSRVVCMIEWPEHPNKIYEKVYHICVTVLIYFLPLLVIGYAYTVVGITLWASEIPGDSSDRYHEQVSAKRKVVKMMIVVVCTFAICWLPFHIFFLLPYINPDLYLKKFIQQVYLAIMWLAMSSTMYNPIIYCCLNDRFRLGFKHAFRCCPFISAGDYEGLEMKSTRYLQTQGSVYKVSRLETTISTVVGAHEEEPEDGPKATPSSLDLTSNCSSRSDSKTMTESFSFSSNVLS

SMILES	pIC50
COc1ccccc1CN[C@H]1C2CC[N+](Cc3ccccc3)(CC2)[C@H]1C(c1ccccc1)c1ccccc1	6.48
COc1ccccc1CN[C@H]1C2CC[N+](C)(CC2)[C@H]1C(c1ccccc1)c1ccccc1	7.91
CCOC(=O)C[N+]12CCC(CC1)[C@H](NCc1ccccc1OC)[C@@H]2C(c1ccccc1)c1ccccc1	7.49
C=CC[N+]12CCC(CC1)[C@H](NCc1ccccc1OC)[C@@H]2C(c1ccccc1)c1ccccc1	7.65
COc1ccccc1CN[C@H]1C2CC[N+](CC(N)=O)(CC2)[C@H]1C(c1ccccc1)c1ccccc1	8.89
